Source: US20220202964A1, “HEPARANASE COMPOUNDS AND METHODS OF USE” (University of Florida Research Foundation, Incorporated, priority 2019, published 2022)
Like-named read-outs stand apart in the source and are kept apart here.

Key:
[1] = stated for comparison; cited from earlier work
[2] = biological target: T1, heparanase (Homo sapiens, UniProt Q9Y251); assay: HPLC analysis of compounds 1-4 with heparanase; type: biochemical; details: 5 μM, heparanase 1 μg, 4 hours, 37° C., NaOAc pH 5.0
T1 sequence (Q9Y251 36-543): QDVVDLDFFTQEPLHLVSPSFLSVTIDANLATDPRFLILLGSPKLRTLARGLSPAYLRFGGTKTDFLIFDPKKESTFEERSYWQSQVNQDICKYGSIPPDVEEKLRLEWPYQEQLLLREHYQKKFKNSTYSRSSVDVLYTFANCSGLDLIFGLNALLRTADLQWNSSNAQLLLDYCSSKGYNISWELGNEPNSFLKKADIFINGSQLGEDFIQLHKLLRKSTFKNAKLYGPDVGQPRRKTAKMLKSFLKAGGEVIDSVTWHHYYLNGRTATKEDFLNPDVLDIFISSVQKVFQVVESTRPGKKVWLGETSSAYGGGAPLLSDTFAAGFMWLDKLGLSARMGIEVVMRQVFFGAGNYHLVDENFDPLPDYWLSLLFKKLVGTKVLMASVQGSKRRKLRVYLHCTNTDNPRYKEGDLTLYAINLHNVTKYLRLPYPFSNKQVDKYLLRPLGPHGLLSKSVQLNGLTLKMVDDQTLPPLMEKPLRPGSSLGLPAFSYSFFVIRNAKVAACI
Method: Heparanase (1 μg, 20 μL) was added to the compounds 1-4 solution (180 μL, 5 μM) in 40 mM NaOAc buffer (pH 5.0) and the mixture was incubated for 4 hours at 37° C. The resulting mixtures were injected into HPLC for analysis. HPLC analysis was performed under the following conditions—mobile phase A: water with 0.1% TFA; B: acetonitrile with 0.1% TFA; 0-20 min: gradient elution, 25-95% B. The trace was monitored by DAD detector at 315 nm.

[3] = biological target: T1, heparanase; assay: Activation of compounds by recombinant heparanase (fluorescence response); type: biochemical; details: 5 μM compound, 1 μg heparanase, 40 mM NaOAc buffer (pH 5.0), 37° C., λex/em=365 nm/455 nm
Method: To a solution of 20 μL, of 50 μM compound 1 (HADP) and 160 μL 40 mM NaOAc (pH=5.0) was added 20 μL, 0.1 μg/μL heparanase to obtain 5 μM 1 (HADP) with 2 μg heparanase solution. After incubation at 37° C. for 2 h, the reaction solution was transferred to quartz cuvettes to measure absorbance or fluorescence. Absorbance spectrum scan range from 250 nm to 500 nm (1 nm increment). fluorescence spectrum setting: λex=365 nm, Slit Width 2.5 nm. Emission was record from 400 nm to 600 nm, Slit Width 5 nm. Absorption spectra were recorded on Shimadzu UV-2700 UV-VIS Spectrophotometer. Fluorescence spectra were recorded on Fluorolog TAU-3 Spectrofluorometer with a xenon lamp (Jobin Yvon-Spex, Instruments S. A., Inc.)
Fluorescence micro cells was charged with 20 μL, of 50 μM compound 1 (HADP) and 160 μL 40 mM NaOAc (pH=5.0). Then 20 μL, 0.05 μg/μL heparanase was added to the above solution. Fluorescence spectra were recorded from 0 min to 3 h. fluorescence spectrum setting: λex=365 nm, Slit Width 2.5 nm. Emission was record from 400 nm to 600 nm, Slit Width 5 nm.
To a solution of 20 μL, of 50 μM each compound and 160 μL, 40 mM NaOAc (pH=5.0) was added 20 μL, 0.05 μg/μL heparanase to obtain 5 μM each compound with 1 μg heparanase solution in 96-well microplate. Each compound was performed in triplicate. Then the microplate was sealed with sealing film and incubated at 37° C. Fluorescence intensity was recorded on Spectramax M5 Multimode plate reader (Molecular Devices, USA) at each timepoint. λex/em=365 nm/455 nm.
5 μM compound 1 (HADP) was incubated with various biological species at the indicated amount/concentration in 96-well microplate. Cysteine (5 mM), Glutathione (5 mM), H2O2 (100 μM), Esterase, Chondroitinase ABC, Hyaluronidase, Lysozyme, β-Glucuronidase, β-Glucosidase (5 μg each) and heparanase (2 μg). For Chondroitinase ABC and Hyaluronidase, 50 μg was also tested. Each sample was performed in triplicates. Then the microplate was sealed with sealing film and incubated at 37° C. for 4 hours. Fluorescence intensity was recorded on Spectramax M5 Multimode plate reader (Molecular Devices, USA). λex/em=365 nm/455 nm.

[4] = pH profile of fluorescence / pKa; type: physicochemical; details: hydrolytic product of HADP, fluorescence vs pH
Method: So, pH profiles of the fluorophore DiFMU and Compound 1 (HADP) were evaluated. […] In contrast, the pKa of 4-methylumbelliferone is ca. 7.8. […] Moreover, the introduction of the fluorine substituents increased the quantum yield and improved the photostability, enabling highly sensitive detection for heparanase.

[5] = biological target: T1, heparanase; details: substrate for heparanase, comparison value; cited from earlier work

Molecule | cleavage by heparanase (HPLC trace) [2] | fluorescence response towards heparanase [3] | other results
Cc1cc(=O)oc2cc(O)ccc12 [4-methylumbelliferone] | – | – | pKa [1]: ca. 7.8
(2S,3S,4R,5R,6S)-3-(((2R,3R,4R,5S,6R)-4,5-dihydroxy-6-((sulfooxy)methyl)-3-(((E)-trioxidaneyl-14-sulfaneylidene)amino)tetrahydro-2H-pyran-2-yfloxy)-4,5-dihydroxy-6-((4-methyl-2-oxo-2H-chromen-7-yl)oxy)tetrahydro-2H-pyran-2-carboxylic acid [Compound 4] | could not be cleaved by heparanase | could not be activated by heparanase | –
Cc1cc(=O)oc2c(F)c(O)c(F)cc12 [DiFMU, 6,8-difluoro-7-hydroxy-4-methylcoumarin, reference compound] | – | – | pKa [4]: ~4.7
CO[C@H]1O[C@H](COS(=O)(=O)O)[C@@H](O[C@@H]2O[C@@H](C(=O)O)[C@@H](O[C@H]3O[C@H](COS(=O)(=O)O)[C@@H](O[C@@H]4O[C@H](C(=O)O)[C@@H](O[C@H]5O[C@H](COS(=O)(=O)O)[C@@H](O)[C@H](O)[C@H]5NS(=O)(=O)O)[C@H](O)[C@H]4O)[C@H](OS(=O)(=O)O)[C@H]3NS(=O)(=O)O)[C@H](O)[C@H]2OS(=O)(=O)O)[C@H](O)[C@H]1NS(=O)(=O)O [fondaparinux] | – | – | Km [5]: 46 µM
(2S,3S,4R,5R,6S)-6-((8-(difluoromethyl)-4-methyl-2-oxo-2H-chromen-7-yl)oxy)-3-(((2R,3R,4R,5S,6R)-3-((hydrosulfonyloxy)amino)-4,5-dihydroxy-6-(hydroxymethyl)tetrahydro-2H-pyran-2-yl)oxy)-4,5-dihydroxytetrahydro-2H-pyran-2-carboxylic acid [Compound 3] | could not be cleaved by heparanase | very slight fluorescence enhancement | –
